In US20250206732A1, “COMPOUNDS AND METHODS FOR THE TARGETED DEGRADATION OF KRAS” (Arvinas Operations, Inc., priority 2022, published 2025) one finds Dmax and DC50 data, which are given here for eleven compounds.

The test addresses T1, AsPC-1 HiBiT-KRASG12D (Homo sapiens, UniProt P01116, G12D).
T1 construct: insert the HiBiT tag onto the N-terminus of one or more of the endogenous KRAS alleles; endogenous in cells; host or cells: AsPC-1 (ATCC CRL-1682), CRISPR-Cas9 knock-in clone, one tagged allele
In words: HiBiT degradation assay (G12D), AsPC-1 HiBiT-KRASG12D cells. It is filed as cell-based. The conditions noted are these: 24 hours treatment; for Dmax: ASPC1, AsPC-1 HiBiT-KRASG12D cells, maximum degradation observed; for DC50: AsPC-1 HiBiT-KRASG12D cells, HiBiT luminescence. Put shortly: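 AsPC-1 cells (homozygous G12D) carrying a CRISPR knock-in N-terminal HiBiT tag on endogenous KRAS were treated with compounds for 24 hours at 37° C, 5% CO2, in triplicate. Alamar blue viability was read first, then cells were washed and lysed with Nano-Glo HiBiT reagent for 45 minutes before luminescence reading.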
A general note: The HiBiT peptide binds its large partner to form an active luciferase.

Bounds are passed on as bounds.

T1 sequence (P01116 1-188 isoform P01116-2 G12D): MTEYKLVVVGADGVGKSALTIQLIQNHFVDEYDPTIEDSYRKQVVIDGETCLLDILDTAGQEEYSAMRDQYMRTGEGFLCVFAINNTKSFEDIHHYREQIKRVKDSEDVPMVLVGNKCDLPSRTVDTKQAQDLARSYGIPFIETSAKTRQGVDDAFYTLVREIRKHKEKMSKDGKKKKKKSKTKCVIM

One may read the Dmax as the largest share of the target that was removed. A higher Dmax goes with deep degradation. As a reminder, the DC50 is the concentration at which degradation of the target reaches its halfway point. Higher therefore signals a less potent degrader. Turning to `C#Cc1c(F)ccc2cccc(-c3ncc4c(N5CC6CCC(C5)N6)nc(OC[C@@]56CCCN5[C@@H](COC(=O)N5CCN(c7cc([C@H](C(=O)N8C[C@H](O)C[C@H]8C(=O)N[C@@H](C)c8ccc(-c9scnc9C)cc8)C(C)C)on7)CC5)CC6)nc4c3F)c12` (relative stereo) [Compound 334, [(3R,8S)-8-[[4-(3,8-diazabicyclo[3.2.1]octan-3-yl)-7-(8-ethynyl-7-fluoro-1-naphthyl)-8-fluoro-pyrido[4,3-d]pyrimidin-2-yl]oxymethyl]-1,2,3,5,6,7-hexahydropyrrolizin-3-yl]methyl 4-[5-[(1R)-1-[(2S,4R)-4-hydroxy-2-[[(1S)-1-[4-(4-methylthiazol-5-yl)phenyl]ethyl]carbamoyl]pyrrolidine-1-carbonyl]-2-methyl-propyl]isoxazol-3-yl]piperazine-1-carboxylate], the maximal degradation (Dmax) lay within 60 to 80% and the DC50 is less than 600 nM.

The compound `CCc1cccc2cc(O)cc(-c3ncc4c(N5CC6CCC(C5)N6)nc(OCCN5C[C@@H]6CN(c7cc(C(C(=O)N8C[C@H](O)C[C@H]8C(=O)N[C@@H](C)c8ccc(-c9scnc9C)cc8)C(C)C)on7)C[C@@H]6C5)nc4c3F)c12` (single isomer, unassigned) [Compound 79, (2S,4R)-1-[(2R*)-2-{3-[(3aR,6aS)-5-{2-[(4-{3,8-diazabicyclo[3.2.1]octan-3-yl}-7-(8-ethyl-3-hydroxynaphthalen-1-yl)-8-fluoropyrido[4,3-d]pyrimidin-2-yl)oxy]ethyl}-octahydropyrrolo[3,4-c]pyrrol-2-yl]-1,2-oxazol-5-yl}-3-methylbutanoyl]-4-hydroxy-N-[(1S)-1-[4-(4-methyl-1,3-thiazol-5-yl)phenyl]ethyl]pyrrolidine-2-carboxamide] showed a maximal degradation (Dmax) of 80 to 100% and a DC50 of less than 600 nM.

Turning to `C#Cc1c(F)ccc2cc(O)cc(-c3ncc4c(N5CC6CCC(C5)N6)nc(OCCN5CCC6(CC5)CN(c5cc(C(C(=O)N7C[C@H](O)C[C@H]7C(=O)N[C@@H](C)c7ccc(-c8ccnn8C)cc7)C(C)C)on5)C6)nc4c3F)c12` (single isomer, unassigned) [Compound 83, (2S,4R)-1-[(2R*)-2-[3-(7-{2-[(4-{3,8-diazabicyclo[3.2.1]octan-3-yl}-7-(8-ethynyl-7-fluoro-3-hydroxynaphthalen-1-yl)-8-fluoropyrido[4,3-d]pyrimidin-2-yl)oxy]ethyl}-2,7-diazaspiro[3.5]nonan-2-yl)-1,2-oxazol-5-yl]-3-methylbutanoyl]-4-hydroxy-N-[(1S)-1-[4-(1-methyl-1H-pyrazol-5-yl)phenyl]ethyl]pyrrolidine-2-carboxamide], the Dmax lay within 80 to 100% and the DC50 is less than 600 nM.

`CCc1cccc2cc(O)cc(-c3ncc4c(N5CC6CCC(C5)N6)nc(OC[C@@]56CCCN5[C@@H](COC(=O)N5CCN(c7cc(C(C(=O)N8C[C@H](O)C[C@H]8C(=O)N[C@@H](C)c8ccc(-c9scnc9C)cc8)C(C)C)on7)CC5)CC6)nc4c3F)c12` (single isomer, unassigned) [Compound 108, [(3R,7aS)-7a-{[(4-{3,8-diazabicyclo[3.2.1]octan-3-yl}-7-(8-ethyl-3-hydroxynaphthalen-1-yl)-8-fluoropyrido[4,3-d]pyrimidin-2-yl)oxy]methyl}-hexahydro-1H-pyrrolizin-3-yl]methyl 4-{5-[(2R*)-1-[(2S,4R)-4-hydroxy-2-{[(1S)-1-[4-(4-methyl-1,3-thiazol-5-yl)phenyl]ethyl]carbamoyl}pyrrolidin-1-yl]-3-methyl-1-oxobutan-2-yl]-1,2-oxazol-3-yl}piperazine-1-carboxylate]: the Dmax fell in the range of 80 to 100% and the half-maximal degradation concentration (DC50) is less than 600 nM.

For the compound `CCc1cccc2cc(O)cc(-c3ncc4c(N5CC6CCC(C5)N6)nc(OC[C@]56CCCN5[C@H](COC(=O)N5CCN(c7cc(C(C(=O)N8C[C@H](O)C[C@H]8C(=O)N[C@@H](C)c8ccc(-c9scnc9C)cc8)C(C)C)on7)CC5)CC6)nc4c3F)c12` (single isomer, unassigned) [Compound 109, [(3S,7aR)-7a-{[(4-{3,8-diazabicyclo[3.2.1]octan-3-yl}-7-(8-ethyl-3-hydroxynaphthalen-1-yl)-8-fluoropyrido[4,3-d]pyrimidin-2-yl)oxy]methyl}-hexahydro-1H-pyrrolizin-3-yl]methyl 4-{5-[(2R*)-1-[(2S,4R)-4-hydroxy-2-{[(1S)-1-[4-(4-methyl-1,3-thiazol-5-yl)phenyl]ethyl]carbamoyl}pyrrolidin-1-yl]-3-methyl-1-oxobutan-2-yl]-1,2-oxazol-3-yl}piperazine-1-carboxylate], the Dmax is 80 to 100% and the 50% degradation concentration (DC50) was less than 600 nM.

`CCc1cccc2cc(O)cc(-c3ncc4c(N5CC6CCC(C5)N6)nc(OCCN5CCC(CCC6CN(c7cc([C@H](C(=O)N8C[C@H](O)C[C@H]8C(=O)N[C@@H](C)c8ccc(-c9scnc9C)cc8)C(C)C)on7)C6)CC5)nc4c3F)c12` (single isomer, unassigned) [Compound 250, (2S,4R)-1-[(2R*)-2-(3-{3-[2-(1-{2-[(4-{3,8-diazabicyclo[3.2.1]octan-3-yl}-7-(8-ethyl-3-hydroxynaphthalen-1-yl)-8-fluoropyrido[4,3-d]pyrimidin-2-yl)oxy]ethyl}piperidin-4-yl)ethyl]azetidin-1-yl}-1,2-oxazol-5-yl)-3-methylbutanoyl]-4-hydroxy-N-[(1S)-1-[4-(4-methyl-1,3-thiazol-5-yl)phenyl]ethyl] pyrrolidine-2-carboxamide] registered a maximal degradation (Dmax) of 80 to 100% and a DC50 of less than 600 nM.

On to `CCc1cccc2cc(O)cc(-c3ncc4c(N5CC6CCC(C5)N6)nc(OCCN5CCC(C(C)(C)N6CCN(c7cc([C@H](C(=O)N8C[C@H](O)C[C@H]8C(=O)N[C@@H](C)c8ccc(-c9scnc9C)cc8)C(C)C)on7)CC6)CC5)nc4c3F)c12` (single isomer, unassigned) [Compound 251, (2S,4R)-1-[(2R*)-2-(3-{4-[2-(1-{2-[(4-{3,8-diazabicyclo[3.2.1]octan-3-yl}-7-(8-ethyl-3-hydroxynaphthalen-1-yl)-8-fluoropyrido[4,3-d]pyrimidin-2-yl)oxy]ethyl}piperidin-4-yl)propan-2-yl]piperazin-1-yl}-1,2-oxazol-5-yl)-3-methylbutanoyl]-4-hydroxy-N-[(1S)-1-[4-(4-methyl-1,3-thiazol-5-yl)phenyl]ethyl] pyrrolidine-2-carboxamide], for which the Dmax was 80 to 100% and the DC50 was less than 600 nM.

`CCc1cccc2cc(O)cc(-c3ncc4c(N5CC6CCC(C5)N6)nc(OCCN5CCC(CCC6CN(c7cc([C@@H](C(=O)N8C[C@H](O)C[C@H]8C(=O)N[C@@H](C)c8ccc(-c9scnc9C)cc8)C(C)C)on7)C6)CC5)nc4c3F)c12` (single isomer, unassigned) [Compound 253, (2S,4R)-1-[(2R*)-2-(3-{3-[2-(1-{2-[(4-{3,8-diazabicyclo[3.2.1]octan-3-yl}-7-(8-ethyl-3-hydroxynaphthalen-1-yl)-8-fluoropyrido[4,3-d]pyrimidin-2-yl)oxy]ethyl}piperidin-4-yl)ethyl]azetidin-1-yl}-1,2-oxazol-5-yl)-3-methylbutanoyl]-4-hydroxy-N-[(1S)-1-[4-(4-methyl-1,3-thiazol-5-yl)phenyl]ethyl] pyrrolidine-2-carboxamide] yielded a Dmax of 20 to 60% and a DC50 of 1000 to 3000 nM.

For `CCc1cccc2cc(O)cc(-c3ncc4c(N5CC6CCC(C5)N6)nc(OCCN5CCC(C(C)(C)N6CCN(c7cc([C@@H](C(=O)N8C[C@H](O)C[C@H]8C(=O)N[C@@H](C)c8ccc(-c9scnc9C)cc8)C(C)C)on7)CC6)CC5)nc4c3F)c12` (single isomer, unassigned) [Compound 254, (2S,4R)-1-[(2R*)-2-(3-{4-[2-(1-{2-[(4-{3,8-diazabicyclo[3.2.1]octan-3-yl}-7-(8-ethyl-3-hydroxynaphthalen-1-yl)-8-fluoropyrido[4,3-d]pyrimidin-2-yl)oxy]ethyl}piperidin-4-yl)propan-2-yl]piperazin-1-yl}-1,2-oxazol-5-yl)-3-methylbutanoyl]-4-hydroxy-N-[(1S)-1-[4-(4-methyl-1,3-thiazol-5-yl)phenyl]ethyl] pyrrolidine-2-carboxamide], the Dmax fell in the range of 20 to 60% and the DC50 lay within 600 to 1000 nM.

`CCc1cccc2cc(O)cc(-c3ncc4c(N5CC6CCC(C5)N6)nc(OCCN5CCC(CC6CN(c7cc([C@H](C(=O)N8C[C@H](O)C[C@H]8C(=O)N[C@@H](C)c8ccc(-c9ccnn9C)cc8)C(C)C)on7)C6)CC5)nc4c3F)c12` (single isomer, unassigned) [Compound 264, (2S,4R)-1-[(2R*)-2-(3-{3-[(1-{2-[(4-{3,8-diazabicyclo[3.2.1]octan-3-yl}-7-(8-ethyl-3-hydroxynaphthalen-1-yl)-8-fluoropyrido[4,3-d]pyrimidin-2-yl)oxy]ethyl}piperidin-4-yl)methyl]azetidin-1-yl}-1,2-oxazol-5-yl)-3-methylbutanoyl]-4-hydroxy-N-[(1S)-1-[4-(1-methyl-1H-pyrazol-5-yl)phenyl]ethyl] pyrrolidine-2-carboxamide]: the maximal degradation (Dmax) lay within 80 to 100% and the DC50 is less than 600 nM.

Compound `CCc1cccc2cc(O)cc(-c3ncc4c(N5CC6CCC(C5)N6)nc(OCCN5CCC(CC6CN(c7cc([C@@H](C(=O)N8C[C@H](O)C[C@H]8C(=O)N[C@@H](C)c8ccc(-c9ccnn9C)cc8)C(C)C)on7)C6)CC5)nc4c3F)c12` (single isomer, unassigned) [Compound 265, (2S,4R)-1-[(2R*)-2-(3-{3-[(1-{2-[(4-{3,8-diazabicyclo[3.2.1]octan-3-yl}-7-(8-ethyl-3-hydroxynaphthalen-1-yl)-8-fluoropyrido[4,3-d]pyrimidin-2-yl)oxy]ethyl}piperidin-4-yl)methyl]azetidin-1-yl}-1,2-oxazol-5-yl)-3-methylbutanoyl]-4-hydroxy-N-[(1S)-1-[4-(1-methyl-1H-pyrazol-5-yl)phenyl]ethyl]pyrrolidine-2-carboxamide] yielded a Dmax of 60 to 80% and a DC50 of 1000 to 3000 nM.
